Two molecules from the NIST ThermoML archive (doi:10.1016/j.tca.2006.02.028) can be followed below.

± gives the expanded uncertainty stated by the source.

A short description of this data set: excess molar enthalpy (molar enthalpy of mixing); xn = mol fraction of the nth substance listed. The following applies: 298.15 K, 101 kPa, Liquid, Titration calorimetry.

Take `O` [water] + CO: where the note is “x2 = 0”, the excess molar enthalpy turned out to be 0 ± 0.000239 kcal/mol.

Turning to `CO` [methanol] + O, the excess molar enthalpy was -0.0779 ± 0.000956 kcal/mol (x1 = 0.05); -0.131 ± 0.00167 kcal/mol (x1 = 0.1); -0.171 ± 0.00191 kcal/mol (x1 = 0.15); -0.193 ± 0.00215 kcal/mol (x1 = 0.2); -0.203 ± 0.00239 kcal/mol (x1 = 0.3); -0.201 ± 0.00215 kcal/mol (x1 = 0.4). Further, the excess molar enthalpy was -0.186 ± 0.00215 kcal/mol (x1 = 0.5); -0.163 ± 0.00191 kcal/mol (x1 = 0.6); -0.139 ± 0.00167 kcal/mol (x1 = 0.7); -0.0985 ± 0.0012 kcal/mol (x1 = 0.8); -0.0576 ± 0.000717 kcal/mol (x1 = 0.9); 0 ± 0.000239 kcal/mol (x1 = 1).
